In patent US20110182973A1, “POLYMERASE INHIBITORS AND THE USE THEREOF FOR THE TREATMENT OF TUMORS” (FREIE UNIVERSITAET BERLIN, priority 2007, published 2011):
Entries after “also recorded” stand apart in the source; their conditions may differ.

Experiments:
primary keratinocytes = test: MTT test (viability) on primary keratinocytes (NHK); format: cell-based; conditions: for inhibition at 100 µM / IC50: Keratinocyte; for inhibition at 100 µM: read-out: max. inhibition; for IC50: 48 h stimulation, read-out: −lg IC50 [M] ± SEM (converted)
[1] = as above; format: cell-based; conditions: human, primary keratinocytes (NHK); MTT test, NHK, 10^−4 M; read-out: Max. inhibition (%) (maximum decrease in viability)
MCF-7 = test: MTT test (viability) on breast cancer cell line MCF-7; format: cell-based; conditions: Homo sapiens, MCF7, MCF-7, 10^−4 M, read-out: Max. inhibition (%) (maximum decrease in viability)
[2] = MTT test (viability) on colon carcinoma line HT-29; format: cell-based; conditions: Hat 29, 10^−4 M
[3] = MTT test (viability) on dermal fibroblasts; format: cell-based; conditions: Fibrob., 10^−4 M, read-out: Max. inhibition (%) (maximum decrease in viability)
SCC-25 cells = test: MTT test (viability) on SCC-25 tumor cells; format: cell-based; conditions: for inhibition at 100 µM / IC50 / cytotoxicity at 100 µM: Homo sapiens; for inhibition at 100 µM: read-out: max. inhibition; for IC50: read-out: −lg IC50 [M] ± SEM (converted); for cytotoxicity at 100 µM: read-out: Max. inhibition (%) (maximum decrease in viability)
[4] = MTT test (viability) on HaCaT keratinocyte cell line; format: cell-based; conditions: human, 10^−4 M, read-out: Max. inhibition (%) (maximum decrease in viability)
logP values = format: physicochemical
[5] = MTT test 48 h, primary keratinocytes, inhibitionmax = 100 − E, E = activity at 10^−4 M in %
[6] = MTT test, primary keratinocytes
[7] = MTT test 48 h, SCC-25 cells, inhibitionmax = 100 − E, E = activity at 10^−4 M in %
[8] = MTT test, 48 h stimulation, SCC-25 cells

In the case of `C[C@@]1(CO)[C@H](O)CC[C@@]2(C)[C@H]1CC[C@H]1C[C@@H]3C[C@@]12CC[C@]3(O)CO` [Aphidicolin], the inhibition at 100 µM (primary keratinocytes; [5]) is reported as 46%, the IC50 (primary keratinocytes; [6]) is reported as 5.62e-09 M and the cytotoxicity [1] is reported as 44%. The cytotoxicity at 100 µM (MCF-7) was 61%, the “Max. inhibition (%) (maximum decrease in viability)” value [2] was 70% and the cytotoxicity [3] was 54%. The inhibition at 100 µM (SCC-25 cells; [7]) was 66%, the IC50 (SCC-25 cells; [8]) was 5.13e-07 M and the cytotoxicity at 100 µM (SCC-25 cells; MTT test, SCC-25, 10^−4 M) was 62%. It also gave a cytotoxicity [4] of 86%.

In the case of `O=C(O)P(=O)(O)O` [Foscamet], the max. inhibition (primary keratinocytes; [5]) is reported as “n.d. (−13%)”, the “Max. inhibition (%) (maximum decrease in viability)” value (primary keratinocytes; MTT test, NHK, 10^−4 M) is reported as 0% and the max. inhibition (SCC-25 cells; [7]) is reported as 9%. The pIC50 (SCC-25 cells; [8]) was 5.87 ± 0.24 and the “Max. inhibition (%) (maximum decrease in viability)” value (SCC-25 cells; MTT test, SCC-25, 10^−4 M) was 9%.

In the case of `Cc1cn([C@H]2CC(=NO)[C@@H](CO)O2)c(=O)[nH]c1=O` [HM-1 oxime, 3′-deoxy-3′-hydroxyliminothymidine], the inhibition at 100 µM (primary keratinocytes; [5]) is reported as 7%, the IC50 (primary keratinocytes; [6]) is reported as 3.09e-08 M and the cytotoxicity [1] is reported as 3%. It also gave an inhibition at 100 µM (SCC-25 cells; [7]) of 36%, an IC50 (SCC-25 cells; [8]) of 3.72e-08 M and a cytotoxicity at 100 µM (SCC-25 cells; MTT test, SCC-25, 10^−4 M) of 30%. The cytotoxicity [4] was 20%.

`Cc1cn([C@H]2CC(=O)[C@@H](CO)O2)c(=O)[nH]c1=O` [HM-1, 3′-Deoxy-3′-oxothymidine] gave an inhibition at 100 µM (primary keratinocytes; [5]) of 24%, a cytotoxicity [1] of 23% and a logP (logP values) of -1.13. The inhibition at 100 µM (SCC-25 cells; [7]) was 47%, the IC50 (SCC-25 cells; [8]) was 4.47e-05 M and the cytotoxicity at 100 µM (SCC-25 cells; MTT test, SCC-25, 10^−4 M) was 47%. For the same compound, the “cytotoxic / antiproliferative effect on tumor cells (SCC-25), in words” value (SCC-25 cells; SCC-25 cells, FIG. 1, FIG. 2, Table 1) was “strong cytotoxic effect; also recorded: stronger than that of the two comparative substances 5-fluorouracil and aphidicolin”, the “selectivity: effect on SCC-25 tumor cells compared with keratinocytes, in words” value (SCC-25 cells; SCC-25 vs primary keratinocytes (and HaCaT)) was “stronger than that in primary keratinocytes” and the cytotoxicity [4] was 16%.

`CCOC(=O)O[C@]1(C(=O)COC(=O)CC)CC[C@H]2[C@@H]3CCC4=CC(=O)C=C[C@]4(C)[C@H]3[C@@H](O)C[C@@]21C` [Prednicarbate] gave a logP (logP values) of 3.82.

Work on `C[C@]12C=CC(=O)C=C1CC[C@@H]1[C@@H]2[C@@H](O)C[C@@]2(C)[C@H]1CC[C@]2(O)C(=O)CO` [Prednisolone] yielded a logP (logP values) of 1.69.

Compound `O=c1[nH]cc(F)c(=O)[nH]1` [Substance 5-FU, 5-fluorouracil] has an inhibition at 100 µM (primary keratinocytes; [5]) of 44%, an IC50 (primary keratinocytes; [6]) of 1.05e-05 M and a cytotoxicity [1] of 41%. For the same compound, the cytotoxicity at 100 µM (MCF-7) was 71%, the “Max. inhibition (%) (maximum decrease in viability)” value [2] was 66% and the cytotoxicity [3] was 88%. It also gave an inhibition at 100 µM (SCC-25 cells; [7]) of 42%, an IC50 (SCC-25 cells; [8]) of 1.05e-06 M and a cytotoxicity at 100 µM (SCC-25 cells; MTT test, SCC-25, 10^−4 M) of 42%. It also gave a cytotoxicity [4] of 80%.
